Test results reported in US20260226493A1, “HERBICIDE RESISTANT PLANTS” (SYNGENTA CROP PROTECTION AG, priority 2023, published 2026).

What was measured:
Test in all cases: BIO3-BIO1 mutant enzyme activity in the presence of herbicide, percentage inhibition (fluorometric DAPA assay)
Format in all cases: biochemical
Settings in all cases: read-out: percentage inhibition
[1] = biological target: T1, Arabidopsis thaliana BIO3-BIO1 (BioDA) mutants (Arabidopsis thaliana, UniProt B0F481, F348D)
T1 construct: with the predicted N-terminal mitochondrial transit peptide removed; 6xHis-tag (N); thrombin cleavage site (N); made in house; host or cells: E. coli BL21 (DE3) bioA
How it was run: (§1)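 His-tagged Arabidopsis BIO3-BIO1 mutants, expressed in E. coli and purified by IMAC and SEC, were preincubated at 50 nM with herbicide for 10 min at 20 °C in EPPS pH 8.6 with pyridoxal phosphate. Reaction with 100 μM spermidine and 20 μM KAPA ran 75 min at 20 °C; DAPA was derivatised with o-phthalaldehyde and read at ex 410/em 470 nm. […].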

[2] = biological target: T2, Arabidopsis thaliana BIO3-BIO1 (BioDA) mutants (Arabidopsis thaliana, UniProt B0F481, Q516C)
T2 construct: with the predicted N-terminal mitochondrial transit peptide removed; 6xHis-tag (N); thrombin cleavage site (N); made in house; host or cells: E. coli BL21 (DE3) bioA
How it was run: as §1

[3] = biological target: T3, Arabidopsis thaliana BIO3-BIO1 (BioDA) mutants (Arabidopsis thaliana, UniProt B0F481, P510E)
T3 construct: with the predicted N-terminal mitochondrial transit peptide removed; 6xHis-tag (N); thrombin cleavage site (N); made in house; host or cells: E. coli BL21 (DE3) bioA
How it was run: as §1

[4] = biological target: T4, Arabidopsis thaliana BIO3-BIO1 (BioDA) mutants (Arabidopsis thaliana, UniProt B0F481, F348C)
T4 construct: with the predicted N-terminal mitochondrial transit peptide removed; 6xHis-tag (N); thrombin cleavage site (N); made in house; host or cells: E. coli BL21 (DE3) bioA
How it was run: as §1

[5] = biological target: T5, Arabidopsis thaliana BIO3-BIO1 (BioDA) mutants (Arabidopsis thaliana, UniProt B0F481, G610H)
T5 construct: with the predicted N-terminal mitochondrial transit peptide removed; 6xHis-tag (N); thrombin cleavage site (N); made in house; host or cells: E. coli BL21 (DE3) bioA
How it was run: as §1

[6] = biological target: T6, Arabidopsis thaliana BIO3-BIO1 (BioDA) mutants (Arabidopsis thaliana, UniProt B0F481, P421L)
T6 construct: with the predicted N-terminal mitochondrial transit peptide removed; 6xHis-tag (N); thrombin cleavage site (N); made in house; host or cells: E. coli BL21 (DE3) bioA
How it was run: as §1

[7] = biological target: T7, Arabidopsis thaliana BIO3-BIO1 (BioDA) mutants (Arabidopsis thaliana, UniProt B0F481, A609R)
T7 construct: with the predicted N-terminal mitochondrial transit peptide removed; 6xHis-tag (N); thrombin cleavage site (N); made in house; host or cells: E. coli BL21 (DE3) bioA
How it was run: as §1

[8] = biological target: T8, Arabidopsis thaliana BIO3-BIO1 (BioDA) mutants (Arabidopsis thaliana, UniProt B0F481, V354T)
T8 construct: with the predicted N-terminal mitochondrial transit peptide removed; 6xHis-tag (N); thrombin cleavage site (N); made in house; host or cells: E. coli BL21 (DE3) bioA
How it was run: as §1

[9] = biological target: T9, Arabidopsis thaliana BIO3-BIO1 (BioDA) mutants (Arabidopsis thaliana, UniProt B0F481, Y511W)
T9 construct: with the predicted N-terminal mitochondrial transit peptide removed; 6xHis-tag (N); thrombin cleavage site (N); made in house; host or cells: E. coli BL21 (DE3) bioA
How it was run: as §1

[10] = biological target: T10, Arabidopsis thaliana BIO3-BIO1 (BioDA) mutants (Arabidopsis thaliana, UniProt B0F481, S509L)
T10 construct: with the predicted N-terminal mitochondrial transit peptide removed; 6xHis-tag (N); thrombin cleavage site (N); made in house; host or cells: E. coli BL21 (DE3) bioA
How it was run: as §1

[11] = biological target: T11, Arabidopsis thaliana BIO3-BIO1 (BioDA) mutants (Arabidopsis thaliana, UniProt B0F481, W392G)
T11 construct: with the predicted N-terminal mitochondrial transit peptide removed; 6xHis-tag (N); thrombin cleavage site (N); made in house; host or cells: E. coli BL21 (DE3) bioA
How it was run: as §1

[12] = biological target: T12, Arabidopsis thaliana BIO3-BIO1 (BioDA) mutants (Arabidopsis thaliana, UniProt B0F481, T512R)
T12 construct: with the predicted N-terminal mitochondrial transit peptide removed; 6xHis-tag (N); thrombin cleavage site (N); made in house; host or cells: E. coli BL21 (DE3) bioA
How it was run: as §1

T1 sequence (B0F481 23-833 F348D): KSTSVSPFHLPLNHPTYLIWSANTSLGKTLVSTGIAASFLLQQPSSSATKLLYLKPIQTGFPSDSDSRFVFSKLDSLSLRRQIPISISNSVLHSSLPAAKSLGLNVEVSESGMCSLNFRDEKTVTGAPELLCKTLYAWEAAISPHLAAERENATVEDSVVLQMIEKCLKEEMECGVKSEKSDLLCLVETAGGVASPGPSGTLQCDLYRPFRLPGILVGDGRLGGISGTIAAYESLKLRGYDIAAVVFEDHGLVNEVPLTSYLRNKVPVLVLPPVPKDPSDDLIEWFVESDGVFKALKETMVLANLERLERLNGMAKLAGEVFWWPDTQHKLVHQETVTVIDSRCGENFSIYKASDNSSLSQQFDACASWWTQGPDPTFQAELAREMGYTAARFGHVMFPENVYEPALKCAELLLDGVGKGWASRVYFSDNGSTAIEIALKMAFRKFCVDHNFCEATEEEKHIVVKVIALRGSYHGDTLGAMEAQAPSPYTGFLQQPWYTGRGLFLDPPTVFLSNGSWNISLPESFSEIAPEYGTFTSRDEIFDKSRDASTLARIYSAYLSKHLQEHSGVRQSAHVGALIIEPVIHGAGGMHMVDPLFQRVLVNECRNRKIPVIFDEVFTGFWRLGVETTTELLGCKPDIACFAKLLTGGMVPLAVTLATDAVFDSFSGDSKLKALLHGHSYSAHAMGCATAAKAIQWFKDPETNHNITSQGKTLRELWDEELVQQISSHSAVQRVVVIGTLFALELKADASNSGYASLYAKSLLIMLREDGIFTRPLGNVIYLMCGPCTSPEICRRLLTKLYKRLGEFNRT
T4 sequence (B0F481 23-833 F348C): as the sequence (B0F481 23-833 F348D) above, with D326C counted along it
T7 sequence (B0F481 23-833 A609R): as the sequence (B0F481 23-833 F348D) above, with D326F, A587R counted along it
T5 sequence (B0F481 23-833 G610H): as the sequence (B0F481 23-833 F348D) above, with D326F, G588H counted along it
T3 sequence (B0F481 23-833 P510E): as the sequence (B0F481 23-833 F348D) above, with D326F, P488E counted along it
T6 sequence (B0F481 23-833 P421L): as the sequence (B0F481 23-833 F348D) above, with D326F, P399L counted along it
T9 sequence (B0F481 23-833 Y511W): as the sequence (B0F481 23-833 F348D) above, with D326F, Y489W counted along it
T12 sequence (B0F481 23-833 T512R): as the sequence (B0F481 23-833 F348D) above, with D326F, T490R counted along it
T10 sequence (B0F481 23-833 S509L): as the sequence (B0F481 23-833 F348D) above, with D326F, S487L counted along it
T11 sequence (B0F481 23-833 W392G): as the sequence (B0F481 23-833 F348D) above, with D326F, W370G counted along it
T8 sequence (B0F481 23-833 V354T): as the sequence (B0F481 23-833 F348D) above, with D326F, V332T counted along it
T2 sequence (B0F481 23-833 Q516C): as the sequence (B0F481 23-833 F348D) above, with D326F, Q494C counted along it

CCn1c(Cn2ccc(C(F)(F)F)n2)cc(=O)c(C(=O)O)c1-c1ccc(Cl)c(Cl)c1 [Compound L, 2-(3,4-dichlorophenyl)-1-ethyl-4-oxo-6-[[3-(trifluoromethyl)pyrazol-1-yl]methyl]pyridine-3-carboxylic acid]
inhibition at 0.01 µM [1]: 0% | inhibition at 0.075 µM [1]: 1% | inhibition at 0.5 µM [1]: 2% | inhibition at 0.01 µM [2]: 44% | inhibition at 0.075 µM [2]: 77% | inhibition at 0.5 µM [2]: 95% | inhibition at 0.01 µM [3]: 0% | inhibition at 0.075 µM [3]: 11% | inhibition at 0.5 µM [3]: 59% | inhibition at 0.01 µM [4]: 0% | inhibition at 0.075 µM [4]: 0% | inhibition at 0.5 µM [4]: 29% | inhibition at 0.01 µM [5]: 7% | inhibition at 0.075 µM [5]: 18% | inhibition at 0.5 µM [5]: 65% | inhibition at 0.01 µM [6]: 0% | inhibition at 0.075 µM [6]: 10% | inhibition at 0.5 µM [6]: 45% | inhibition at 0.01 µM [7]: 0% | inhibition at 0.075 µM [7]: 51% | inhibition at 0.5 µM [7]: 65%

CCn1c(C)c(-c2ccc(F)cc2F)c(=O)c(C(=O)O)c1-c1ccc(Cl)c(Cl)c1 [Compound C, 2-(3,4-dichlorophenyl)-5-(2,4-difluorophenyl)-1-ethyl-6-methyl-4-oxo-pyridine-3-carboxylic acid]
inhibition at 0.2 µM [1]: 8% | inhibition at 1 µM [1]: 13% | inhibition at 5 µM [1]: 0% | inhibition at 0.2 µM [2]: 74% | inhibition at 1 µM [2]: 95% | inhibition at 5 µM [2]: 99% | inhibition at 0.2 µM [8]: 0% | inhibition at 1 µM [8]: 56% | inhibition at 5 µM [8]: 92% | inhibition at 0.2 µM [3]: 8% | inhibition at 1 µM [3]: 38% | inhibition at 5 µM [3]: 74% | inhibition at 0.2 µM [4]: 0% | inhibition at 1 µM [4]: 0% | inhibition at 5 µM [4]: 0% | inhibition at 0.2 µM [5]: 19% | inhibition at 1 µM [5]: 58% | inhibition at 5 µM [5]: 82% | inhibition at 0.2 µM [6]: 4% | inhibition at 1 µM [6]: 35% | inhibition at 5 µM [6]: 67% | inhibition at 0.2 µM [9]: 41% | inhibition at 1 µM [9]: 85% | inhibition at 5 µM [9]: 97% | inhibition at 0.2 µM [10]: 24% | inhibition at 1 µM [10]: 85% | inhibition at 5 µM [10]: 99% | inhibition at 0.2 µM [11]: 0% | inhibition at 1 µM [11]: 20% | inhibition at 5 µM [11]: 69% | inhibition at 0.2 µM [12]: 74% | inhibition at 1 µM [12]: 95% | inhibition at 5 µM [12]: 99% | inhibition at 0.2 µM [7]: 63% | inhibition at 1 µM [7]: 68% | inhibition at 5 µM [7]: 71%

CCn1c(-c2ccc(Cl)c(Cl)c2)c(C(=O)O)c(=O)c2cc(F)ccc21 [Compound M, 2-(3,4-dichlorophenyl)-1-ethyl-6-fluoro-4-oxo-quinoline-3-carboxylic acid]
inhibition at 0.2 µM [1]: 0% | inhibition at 1 µM [1]: 2% | inhibition at 5 µM [1]: 0% | inhibition at 0.2 µM [2]: 64% | inhibition at 1 µM [2]: 88% | inhibition at 5 µM [2]: 97% | inhibition at 0.2 µM [8]: 4% | inhibition at 1 µM [8]: 47% | inhibition at 5 µM [8]: 88% | inhibition at 0.2 µM [3]: 0% | inhibition at 1 µM [3]: 25% | inhibition at 5 µM [3]: 61% | inhibition at 0.2 µM [4]: 14% | inhibition at 1 µM [4]: 3% | inhibition at 5 µM [4]: 0% | inhibition at 0.2 µM [5]: 26% | inhibition at 1 µM [5]: 59% | inhibition at 5 µM [5]: 84% | inhibition at 0.2 µM [6]: 0% | inhibition at 1 µM [6]: 6% | inhibition at 5 µM [6]: 31% | inhibition at 0.2 µM [9]: 25% | inhibition at 1 µM [9]: 67% | inhibition at 5 µM [9]: 90% | inhibition at 0.2 µM [10]: 19% | inhibition at 1 µM [10]: 68% | inhibition at 5 µM [10]: 94% | inhibition at 0.2 µM [11]: 0% | inhibition at 1 µM [11]: 7% | inhibition at 5 µM [11]: 12% | inhibition at 0.2 µM [12]: 81% | inhibition at 1 µM [12]: 95% | inhibition at 5 µM [12]: 99% | inhibition at 0.2 µM [7]: 52% | inhibition at 1 µM [7]: 53% | inhibition at 5 µM [7]: 88%

CCOC(=O)c1nn(-c2ccc3c(c2)OC(F)(F)C(F)(F)O3)c2cccc(C(C)=O)c2c1=O [Compound A, ethyl 5-acetyl-4-oxo-1-(2,2,3,3-tetrafluoro-1,4-benzodioxin-6-yl)cinnoline-3-carboxylate]
inhibition at 1 µM [1]: 0% | inhibition at 1 µM [2]: 83% | inhibition at 1 µM [8]: 61% | inhibition at 1 µM [3]: 26% | inhibition at 1 µM [4]: 0% | inhibition at 1 µM [5]: 10% | inhibition at 1 µM [6]: 61% | inhibition at 1 µM [9]: 57% | inhibition at 1 µM [10]: 6% | inhibition at 1 µM [11]: 56% | inhibition at 1 µM [12]: 82% | inhibition at 1 µM [7]: 54%
